# Laboratory results published in US12070465B2, “Compositions and methods for the prevention and treatment of hearing loss” (Ting Therapeutics LLC, priority 2020, dated 2024).
# What was measured:
# [1] = test system: zebrafish neuromast hair cells; experiment: Zebrafish model for excitotoxicity (kainic acid induced hair cell death); type: in vivo; settings: for performance compared with Piperlongumine against kainic acid (KA) induced hair cell death: KA 300 μM 1 hour, then derivative 2 hours at 1 nM to 100 μM, better at at least one dose
# Protocol: 5dpf Tg(Brn3c:mGFP) larvae were used for the experiments. Zebrafish were pretreated with kainic acid for one hour (300 μM) to mimic the excitotoxic damage induced by noise exposure, and then, post-treated with Piperlongumine-25 for 2 hours (al concentrations of 0.001 μM; 0.1 μM; 10 μM; and 100 μM). Control animal were treated with DMSO (−) or Piperlongumine-25 alone (+). Animals were then fixed and immunostained for GFP. Quantification was done by assessing three neuromasts in the same anatomic location of each animal (n=5). The data is plotted as mean+SD. Statistical testing was done with One-way ANOVA and Dunnett post-hoc test (P<0.0001 compared to KA).
# Subsequently, animals were transferred to E3 water for 5 hours and fixed in 4% paraformaldehyde (PFA) overnight. Neuromast HCs were immunolabeled with anti-otoferlin (HCS-1, DSHB) and anti-GFP (NB100-1614, Novus Biologicals). These two markers were used to detect and count neuromast HCs to reduce the chances of missing some of the HCs after the treatment since as it was previously noticed that incubation with the compounds can affect GFP expression more difficult to detect under a fluorescence microscope. Otic, middle, and opercular neuromasts were identified, and HCs at SO3 (supraorbital line neuromast) and O1-2 (Otic line neuromasts) were manually counted using a Zeiss AxioSkop 2 fluorescence microscope with a 40× oil objective. Control animals were treated with DMSO (−) or Neo or GM alone (+) Animals were then fixed and immunostained for GFP and otoferlin. Quantification was done by assessing three neuromasts in the same anatomic location of each animal (n=5). The data is plotted as mean+SD. Statistical testing was done with One-way ANOVA and Dunnett post-hoc test (*P<0.05, **P<0.01, ***P<0.001 compared to either Neo or GM, respectively). […] For the screening of piperlongumine derivatives for protection against noise-induced hearing loss we employed a zebrafish model that mimics excitotoxic damage. Five-day post-fertilization (dpf) Tg(brn3c:GFP) larvae were incubated with 300 μM of KA for 1 hour followed by piperlongumine-25 for 2 hours at 0.001 μM, 0.1 μM, 10 μM, and 100 μM. DMSO and KA were used as controls.
# 5 dpf fish were incubated with KA 300 μM for 1 hour followed by a two-hour incubation with one of the piperlongumine derivatives at 1 nM to 100 μM. Animals were fixed and immunostained for the hair cell marker, otoferlin. Neuromast hair cells were counted under a fluorescence microscope. At least 3 neuromast of the rostral lateral line were inspected per fish, in a total of 6 fish per treatment. Results are presented as mean+/−SD. Control, KA only, PG only, PG+KA, derivatives that were no protective against excitotoxicity, derivatives that performed better than PG.
# 5dpf fish were incubated with KA 300 μM for 1 hour followed by one of the PG derivatives at different concentrations for additional 2 hours. Animals were fixed and immunostained for otoferlin. Neuromast hair cells were quantified in at least 3 rostral neuromasts per fish in a total of 6 fish per treatment. Results are expressed as mean+/−SD. Statistical analysis: One-way ANOVA *P<0.05, **P<0.01, P<0.001 versus KA alone. These five Piperlongumine derivatives performed better than Piperlongumine at least one dose.
# [2] = test system: zebrafish lateral line neuromast hair cells; experiment: Zebrafish lateral line neuromast hair cell counts after aminoglycoside (neomycin or gentamycin); type: in vivo, Danio rerio; settings: 5 dpf larvae
# Source text: Now referring to FIGS. 5A-C,(E)-1-(3-(3,4,5-trimethoxyphenyl)acryloyl)-S,6-dihydropyridin-2(1H)-one (Piperlongumine) protects from aminoglycoside induced hair cell loss in zebrafish lateral line neuromasts in vivo. Zebrafish lateral line neuromast HC counts are commonly used in vivo models for screening otoprotectants. Danio rerio experimental larvae were obtained by pair mating of adult fish maintained at Creighton University by standard methods approved by the Institutional Animal Care and Use Committee. Fish used were Tg(pou4f3:mGFP) expressing a membrane bound GFP in HCs. […] The lateral-line neuromasts of zebrafish are a valuable system for testing protectivity of compounds against aminoglycoside toxicity in vivo, as their HCs are considered homologous to those in the mammalian inner ear and are readily accessible to drugs. […]
# Subsequently, animals were transferred to E3 water for 5 hours and fixed in 4% paraformaldehyde (PFA) overnight. […] These two markers were used to detect and count neuromast HCs to reduce the chances of missing some of the HCs after the treatment since as it was previously noticed that incubation with the compounds can affect GFP expression more difficult to detect under a fluorescence microscope. […] Quantification was done by assessing three neuromasts in the same anatomic location of each animal (n=5). […]
# [3] = test system: mouse embryonic fibroblast (MEFs); experiment: MTT viability of mouse embryonic fibroblasts exposed to aminoglycosides; type: cell-based; settings: 15 hours
# Protocol: (§1) MEFs were incubated for 15 hours with neomycin (100 μM) or gentamicin (8 μM) with or without Piperlongumine (0.1 nM-5 μM). Cell viability was assessed employing MTT (3-(4-,5-dimethylthiazol-2-yl)-2,5-diphenyltetrazolium bromide) viability kit test (Thermo Fisher). The data is plotted as mean+SD. Statistical testing was done with One-way ANOVA and Dunnett post-hoc test (*P<0.05, **P<0.01 compared to either Neo or GM, respectively).
# as §1, with “Now referring to FIG. 7 (E)-1-(3-(3,4,5-trimethoxyphenyl)acryloyl)-S,6-dihydropyridin-2(1H)-one protects mouse embryonic fibroblast (MEFs) against aminoglycosides. MEFs” for “MEFs”, “without(E)-1-(3-(3,4,5-trimethoxyphenyl)acryloyl)-S,6-dihydropyridin-2(1H)-one” for “without Piperlongumine”, “μM) at 0.1 nM, 0.5 nM, 1 nM, 5 nM, 10 nM, 50 nM, 100 nM, and 500 nM.” for “μM).”
# [4] = test system: C57BL/6 (Cdh23 corrected) mice; experiment: ABR thresholds in kanamycin exposed mice; type: in vivo, mouse; settings: at 22.6 kHz; 40 mg/kg b.w. once a day for 17 days IP; kanamycin 700 mg/kg twice a day for 14 days; p=0.0408
# Protocol: (§2) C57BI6 (Cdh23 corrected) (6-7 weeks old) were exposed to vehicle+kanamycin (Veh+Kan) (700 mg/kg b.w. twice a day for 14 days) (shown as circles with four breaks); or (E)-1-(3-(3,4,5-trimethoxyphenyl)acryloyl)-S,6-dihydropyridin-2(1H)-one+kanamycin (PLM+Kan) with (E)-1-(3-(3,4,5-trimethoxyphenyl)acryloyl)-S,6-dihydropyridin-2(1H)-one (40 mg/kg b.w. once a day for 17 days) (shown as circle no breaks). Age match controls are shown (age, shown as circle with three breaks). Auditory brainstem response (ABR) thresholds were recorded for frequencies (4 kHz, 5.6 kHz, 8 kHz, 16 kHz, 22.6 kHz, 32 kHz, 45.2 kHz, and 64 kHz) before and after treatment protocol. […] Statistical analysis was done with repeated measures ANOVA between groups.
# Now referring to FIG. 8A, Piperlongumine protects from aminoglycoside toxicity in mice in vivo. 6-7-week-old C57BL/6 (Cdh23 corrected) were used, with a mix of males and females across experiments. […] Piperlongumine's protection against hearing impairment loss was assessed by measuring ABR threshold shifts in the mouse ear.
# Animals were anesthetized with a mixture of ketamine/xylazine before ABR assessment. […] Evoked responses were amplified (20x), bandpass filtered (300-3,000 Hz) and average of 512 responses of 10 ms duration was recorded. […]
# [5] = test system: C57BL/6 (Cdh23 corrected) mice; experiment: General toxicity in mice over the 17-day treatment regimen; type: in vivo, mouse; settings: 40 mg/kg b.w. for 17 days, with and without kanamycin
# Protocol: as §2
# Now referring to FIG. 8A, Piperlongumine protects from aminoglycoside toxicity in mice in vivo. 6-7-week-old C57BL/6 (Cdh23 corrected) were used, with a mix of males and females across experiments. Procedures were approved by the IACUC committee of the Creighton University.) Mice were treated with Piperlongumine (40 mg/kg b.w., for 17 days, IP) with or without kanamycin treatment (700 mg/kg b.w. for 14 days twice a day, s.q.). Piperlongumine's protection against hearing impairment loss was assessed by measuring ABR threshold shifts in the mouse ear.
# Age-control group mice were administered saline. […] Data are presented as mean+SD, n=3-4/group.
structure (smiles),measurement,setting,value
O=C(/C=C/c1ccco1)N1CCC1=O [PG3],performance compared with Piperlongumine against kainic acid (KA) induced hair cell death,[1],better performance than Piperlongumine
COc1cccc(/C=C/C(=O)N2CCCCC2=O)c1 [PG25],protection of neuromast hair cells from excitotoxic damage induced by kainic acid,"[1]; 300 μM KA 1 hour, then compound 2 hours at 0.001 μM, 0.1 μM, 10 μM, 100 μM",protects neuromast hair cells from excitotoxic damage
same,performance compared with Piperlongumine against kainic acid (KA) induced hair cell death,[1],better performance than Piperlongumine
O=C(/C=C/c1ccccc1)N1CCC1=O [PG 18],performance compared with Piperlongumine against kainic acid (KA) induced hair cell death,[1],better performance than Piperlongumine
O=C(/C=C/c1ccc2c(c1)OC(F)(F)O2)N1CCCCCC1=O [PG 53],performance compared with Piperlongumine against kainic acid (KA) induced hair cell death,[1],better performance than Piperlongumine
O=C(/C=C/c1ccc2c(c1)OC(F)(F)O2)N1CCCCC1=O [PG 54],performance compared with Piperlongumine against kainic acid (KA) induced hair cell death,[1],better performance than Piperlongumine
"COc1cc(/C=C/C(=O)N2CCC=CC2=O)cc(OC)c1OC [Piperlongumine, (E)-1-(3-(3,4,5-trimethoxyphenyl)acryloyl)-S,6-dihydropyridin-2(1H)-one]",protection from gentamycin-induced hair cell death,[2]; 1 hour pre-incubation then co-incubation with 100 μM gentamycin for 1 hour,protects zebrafish neuromasts from gentamycin-induced hair cell death
same,protection from neomycin-induced hair cell death,[2]; 1 hour pre-incubation then co-incubation with 200 μM Neomycin for 30 minutes,protects zebrafish neuromasts from neomycin-induced hair cell death
same,"protection of MEFs against gentamycin (cell viability, MTT)","[3]; gentamicin 8 μM, observed at 0.1 nM to 1 nM",100%
same,"protection of MEFs against neomycin (cell viability, MTT)","[3]; neomycin 100 μM, observed at 0.1 nM to 10 nM",100%
same,protection of ABR threshold against kanamycin,[4],significant protection
same,general toxicity,[5],not toxic
